The assay deals with T1, cFLF-AmDH.
T1 construct: gene pdh; KS/NL parents; C-terminal His6; E. coli BL21(DE3)
As to the kind of experiment: NADH oxidation at […] nm, Michaelis-Menten fit. The assay is classed as biochemical, Pseudobacillus badius. The following applies: 2 M NH4Cl/NH4OH, optimum pH and temperature (table note; Methods: 100 mM NH4Cl/NH4OH, pH 8.5, 30 °C).

This is an account of results in article PMC10992376, “High coenzyme affinity chimeric amine dehydrogenase based on domain engineering” (Bioresources and Bioprocessing, 2022).

Like-named read-outs stand apart in the source and are kept apart here.

`NC(=O)C1=CN([C@@H]2O[C@H](COP(=O)(O)OP(=O)(O)OC[C@H]3O[C@@H](n4cnc5c(N)ncnc54)[C@H](O)[C@@H]3O)[C@@H](O)[C@H]2O)C=CC1` [NADH]: the Km (read-out: NADH / Km, co-substrate pFPA) amounted to 0.49 ± 0.02 mM. As to `CC(=O)Cc1ccc(F)cc1` [p-FPA], the Km (co-substrate NADH, ammonium, read-out: pFPA / Km) was 21.8 ± 2.67 mM.
